Marks after values point to notes of the source that are not given here.
Columns and labels:
s.c. BxPC3 tumors = assay: Protocol 103: efficacy, biodistribution, tolerability of CEA-PRIT; format: in vivo, SCID mice
Protocol: Step 1: Administration of a BsAb (i.v. or i.p.): The BsAb used in the studies binds Pb-DOTAM with high affinity and targets the tumor e.g. via CEA.
Step 2: Administration of CA (i.v. or i.p.): To allow efficient tumor accumulation of ^212Pb-DOTAM, circulating BsAb needs to be neutralized in the blood using a CA that blocks ^212Pb-DOTAM binding to unbound BsAb, without penetrating into the tumor and consequently blocking the pretargeted sites. The CA is administered once the BsAb has accumulated to a sufficient degree in the tumor, generally after 4-10 days. […]
The body weight (BW) of the study animals was measured at least 3 times per week, with additional measurements as needed depending on the health status. […]
Blood was collected at termination from the venous sinus using retro-orbital bleeding, followed by additional tissue harvest for radioactive measurements and/or histological analysis, as mandated by the protocols. […] Organs and tissues collected for biodistribution purposes were weighed and measured for radioactivity using a 2470 WIZARD^2 automatic gamma counter (PerkinElmer), and the percent injected dose per gram of tissue (% ID/g) subsequently calculated, including corrections for decay and background. […]
where d indicates treatment day and 0 the baseline value. […] Tumor regression (TR) was calculated according to: […]

BxPC3 tumors = assay: Protocol 93a: efficacy and biodistribution of CEA-PRIT; format: in vivo, SCID mice
Protocol: The bispecific antibodies were compared side-by-side in single- and double-cycle treatment regimens.
Groups A-G represent the treated mice that were followed up for assessment of efficacy, whereas groups H-L comprise mice that were sacrificed for biodistribution purposes 24 h after their last ^212Pb-DOTAM injection.
Solid xenografts were established by subcutaneous injection of cells in RPMI (BxPC3) or DMEM (LS174T) media mixed 1:1 with Corning® Matrigel® basement membrane matrix (growth factor reduced; cat No. 354230).
For protocol 93a, mice (age 7 weeks) were injected s.c. into the right flank with 5×10^6 BxPC3 cells (passage 33) in 100 μl RPMI/Matrigel. Twelve days after tumor cell injection, mice were sorted into experimental groups with an average tumor volume of 235 mm^3.
To minimize re-ingestion of radioactive urine/feces after treatment cycle 1, cages were changed 4 hours after ^212Pb-DOTAM administration, and then again at 24 h p.i. For cycle 2, mice were placed in cages with grilled floors for 4 hours after ^212Pb-DOTAM administration, before being transferred to new cages with standard bedding. All cages were then changed at 24 h p.i., as after cycle 1. The tumor development in the mice was followed through repeated calipering three times a week. If needed, additional calipering was performed in the gaps between scheduled measurements. The body weight of the animals was measured repeatedly in the same fashion. Mice whose tumor volume reached 3000 mm^3 were immediately euthanized. Other factors taken into account for euthanasia for ethical reasons were body weight loss, tumor status (e.g. ulceration) and general appearance of the animal. Wet food was provided to all animals starting from five days after the radioactive injection if mandated by an acute loss of body weight (collective or individual) due to radiation-induced toxicity, until all individuals had recovered sufficiently.
The following organs and tissues were harvested from groups A-G at the time of euthanasia: bladder, ovaries, liver, spleen, kidneys, femur (including bone marrow), colon, jejunum, stomach, and tumor. Unexpected or abnormal conditions were noted and photographed. Tissues were immediately put in 10% neutral buffered formalin (4° C.) and then transferred to PBS (4° C.) after 5 days. The formalin-fixed samples were then shipped to Roche Pharma Research and Early Development, Roche Innovation Center Basel, for further processing and analysis.
Mice in groups H, J, and L were sacrificed and necropsied 24 hours after their first and only injection of ^212Pb-DOTAM; groups I and K were sacrificed and necropsied 24 hours after their second ^212Pb-DOTAM injection. The following organs and tissues were harvested: blood, bladder, small intestine, colon, spleen, pancreas, kidneys, liver, lung, heart, femoral bone, muscle, tail, and tumor. Collected samples were weighed and measured for radioactivity, and the percent injected dose per gram of tissue (% ID/g) subsequently calculated, including corrections for decay and background.

[1] = labelled group 30 + 30 μCi 212Pb-DOTAM, multiple test level = 0.00238

Compound: NC(=O)CN1CCN(CC(N)=O)CCN(CC(N)=O)CCN(CC(N)=O)CC1.[212Pb+2] [^212Pb-DOTAM]
- BW loss (s.c. BxPC3 tumors; 10 μCi, even at multiple injections): mild
- radioactivity level tolerability (s.c. BxPC3 tumors; 30 μCi under the applied conditions): approaching the maximum tolerated activity
- tumor growth inhibition (TGI) (BxPC3 tumors; day 47, 30+30 μCi, compared with PBS): 15.8%
- Pairwise Log-Rank Test, survival, p vs PRIT-0175 30 + 30 μCi (BxPC3 tumors; [1]): 0.0032*
- Pairwise Log-Rank Test, survival, p vs PRIT-0213 30 + 10 μCi (BxPC3 tumors; [1]): 0.0001*
- Pairwise Log-Rank Test, survival, p vs PRIT-0213 30 + 30 μCi (BxPC3 tumors; [1]): 0.8474
- Pairwise Log-Rank Test, survival, p vs PRIT-0214 30 + 10 μCi (BxPC3 tumors; [1]): <.0001*
- Pairwise Log-Rank Test, survival, p vs PRIT-0214 30 + 30 μCi (BxPC3 tumors; [1]): 0.0685
- Pairwise Log-Rank Test, survival, p vs Vehicle (PBS) (BxPC3 tumors; [1]): 0.5271
- Pairwise Wilcoxon Test, survival, p vs PRIT-0175 30 + 30 μCi (BxPC3 tumors; [1]): 0.0042*
- Pairwise Wilcoxon Test, survival, p vs PRIT-0213 30 + 10 μCi (BxPC3 tumors; [1]): 0.0004*
- Pairwise Wilcoxon Test, survival, p vs PRIT-0213 30 + 30 μCi (BxPC3 tumors; [1]): 0.8704
- Pairwise Wilcoxon Test, survival, p vs PRIT-0214 30 + 10 μCi (BxPC3 tumors; [1]): 0.0002*
- Pairwise Wilcoxon Test, survival, p vs PRIT-0214 30 + 30 μCi (BxPC3 tumors; [1]): 0.0827
- Pairwise Wilcoxon Test, survival, p vs Vehicle (PBS) (BxPC3 tumors; [1]): 0.1439

— patent US20220031871A1, “ANTIBODIES FOR CHELATED RADIONUCLIDES AND CLEARING AGENTS” (Hoffmann-La Roche Inc., priority 2018, published 2022)
